Laboratory results as given in patent US20020137929A1, “1 - (3-heterocyclylphenyl) isothiourea, -isourea, -guanidine and -amidine herbicidal agents” (Intellectual Property Department, BASF Aktiengesellschaft, priority 1998, published 2002).

Tests used:
ORYSAT (Rice, Tebonnet) = assay: Postemergence herbicidal evaluation; assay type: in vivo, Oryza sativa, (L.) Tebonnet; settings: postemergence
In short: (§1)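 First, seedlings were raised for around two weeks. Next, test material in 50/50 acetone/water containing 0.5% TWEEN 20 was sprayed through a nozzle at 40 psi, equivalent to about 0.0156–0.500 kg/ha. Finally, after 4–5 weeks in the greenhouse, plants were rated 0–9.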

[1] = system: TRZAWR (Wheat, Winter, cv Riband); assay: Preemergence herbicidal evaluation; assay type: in vivo, Triticum aestivum; settings: rated 4-5 weeks after treatment
In short: (§2)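 Scores (0–9) reflect visual comparison with control plants for stand, vigor, malformation, size and chlorosis. Compound was applied to the soil after sowing, before emergence, as an aqueous acetone spray (about 0.0156–0.500 kg/ha), and cups were kept in a greenhouse for 4–5 weeks.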

ZEAMX (Corn, Field) [2] = assay: Preemergence herbicidal evaluation; assay type: in vivo, Zea mays; settings: rated 4-5 weeks after treatment
In short: as §2

CYPIR (Rice Flatsedge) [3] = assay: Postemergence weed control under flooded paddy conditions; assay type: in vivo, Cyperus iria; settings: postemergence weeds, 3-4 weeks after treatment
In short: (§3)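 With weeds 3 to 5 cm tall and rice at the 1.5 to 2.5 leaf stage, containers were flooded and water held 1.5 to 3 cm above soil. Compounds in 50/50 v/v aqueous/acetone went into the flood water at about 0.0313 to 0.500 kg/ha a.i. Effects were visually rated 0–9 against controls after three to four weeks in the greenhouse.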

[4] = system: ECHORC (Watergrass (Calif.)); assay: Preemergence weed control under flooded paddy conditions; assay type: in vivo, Echinochloa oryzoides; settings: rated 3-4 weeks after treatment
In short: (§4)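 Flooded-pot preemergence screen with silt loam and seeds in the upper 0.5 cm. Dose about 0.0313 to 0.500 kg/ha, delivered into flood water; visual 0-9 score after 3 to 4 weeks.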

CYPSE (Flatsedge) [5] = assay: as above; assay type: in vivo, Cyperus serotinus; settings: rated 3-4 weeks after treatment
In short: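 Seeds or propagules sown in silt loam kept flooded 1.5-3 cm; compounds in 50/50 acetone/water pipetted into flood water at about 0.0313 to 0.500 kg/ha. Greenhouse; visual 0-9 rating versus untreated control 3-4 weeks after treatment.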

ECHCG (Barnyardgrass) = assay: Preemergence herbicidal evaluation; assay type: in vivo, Echinochloa crus-galli; settings: rated 4-5 weeks after treatment
In short: as §2

ZEAMX (Corn, Field) [6] = assay: Postemergence herbicidal evaluation; assay type: in vivo, Zea mays; settings: postemergence
In short: as §1

[7] = system: SAGPY (Arrowhead (Pygmaea)); assay: Postemergence weed control under flooded paddy conditions; assay type: in vivo, Sagittaria pygmaea; settings: postemergence weeds, 3-4 weeks after treatment
In short: as §3

SETVI (Foxtail, Green) [8] = assay: Preemergence herbicidal evaluation; assay type: in vivo, Setaria viridis; settings: rated 4-5 weeks after treatment
In short: as §2

[9] = system: ECHORC (Watergrass (Calif.)); assay: Postemergence weed control under flooded paddy conditions; assay type: in vivo, Echinochloa oryzoides; settings: postemergence weeds, 3-4 weeks after treatment
In short: as §3

SETVI (Foxtail, Green) [10] = assay: Postemergence herbicidal evaluation; assay type: in vivo, Setaria viridis; settings: postemergence
In short: as §1

CYPSE (Flatsedge) [11] = assay: Postemergence weed control under flooded paddy conditions; assay type: in vivo, Cyperus serotinus; settings: postemergence weeds, 3-4 weeks after treatment
In short: as §3

CYPIR (Rice Flatsedge) [12] = assay: Preemergence weed control under flooded paddy conditions; assay type: in vivo, Cyperus iria; settings: rated 3-4 weeks after treatment
In short: as §4

C=CCN1C(=O)CSC1=Nc1cc(N2C(=O)C3=C(CCCC3)C2=O)c(F)cc1Cl [Compound 2, N-{5-[(3-allyl-4-oxo-2-thiazolidinylidene)amino]-4-chloro-2-fluorophenyl}-1-cyclohexene-1,2-dicarboximide]
ORYSAT herbicidal rating (ORYSAT (Rice, Tebonnet); rate 0.0157 kg/ha): 3.0
ORYSAT herbicidal rating (ORYSAT (Rice, Tebonnet); rate 0.0313 kg/ha): 3.0
ORYSAT herbicidal rating (ORYSAT (Rice, Tebonnet); rate 0.0625 kg/ha): 3.0
ORYSAT herbicidal rating (ORYSAT (Rice, Tebonnet); rate 0.1250 kg/ha): 3.5
ORYSAT herbicidal rating (ORYSAT (Rice, Tebonnet); rate 0.2500 kg/ha): 3.5
ORYSAT herbicidal rating (ORYSAT (Rice, Tebonnet); rate 0.5000 kg/ha): 3.0
TRZAWR preemergence herbicidal rating ([1]; rate 0.0313 kg/ha): 0.0
TRZAWR preemergence herbicidal rating ([1]; rate 0.0625 kg/ha): 0.0
TRZAWR preemergence herbicidal rating ([1]; rate 0.1250 kg/ha): 0.0
TRZAWR preemergence herbicidal rating ([1]; rate 0.2500 kg/ha): 0.0
TRZAWR preemergence herbicidal rating ([1]; rate 0.5000 kg/ha): 0.0
ZEAMX preemergence herbicidal rating (ZEAMX (Corn, Field) [2]; rate 0.0313 kg/ha): 0.0
ZEAMX preemergence herbicidal rating (ZEAMX (Corn, Field) [2]; rate 0.0625 kg/ha): 0.0
ZEAMX preemergence herbicidal rating (ZEAMX (Corn, Field) [2]; rate 0.1250 kg/ha): 0.0
ZEAMX preemergence herbicidal rating (ZEAMX (Corn, Field) [2]; rate 0.2500 kg/ha): 0.0
ZEAMX preemergence herbicidal rating (ZEAMX (Corn, Field) [2]; rate 0.5000 kg/ha): 0.0
Herbicidal rating CYPIR (CYPIR (Rice Flatsedge) [3]; rate 0.0313 kg/ha): 0.0
Herbicidal rating CYPIR (CYPIR (Rice Flatsedge) [3]; rate 0.0625 kg/ha): 0.0
Herbicidal rating CYPIR (CYPIR (Rice Flatsedge) [3]; rate 0.1250 kg/ha): 0.0
Herbicidal rating CYPIR (CYPIR (Rice Flatsedge) [3]; rate 0.2500 kg/ha): 1.0
Herbicidal rating CYPIR (CYPIR (Rice Flatsedge) [3]; rate 0.5000 kg/ha): 4.0
Herbicidal rating ECHORC ([4]; 0.0313 kg/ha): 2.0
Herbicidal rating ECHORC ([4]; 0.0625 kg/ha): 2.0
Herbicidal rating ECHORC ([4]; 0.1250 kg/ha): 7.0
Herbicidal rating ECHORC ([4]; 0.2500 kg/ha): 8.0
Herbicidal rating ECHORC ([4]; 0.5000 kg/ha): 9.0
Herbicidal rating CYPSE (CYPSE (Flatsedge) [5]; 0.0313 kg/ha): 0.0
Herbicidal rating CYPSE (CYPSE (Flatsedge) [5]; 0.0625 kg/ha): 0.0
Herbicidal rating CYPSE (CYPSE (Flatsedge) [5]; 0.1250 kg/ha): 0.0
Herbicidal rating CYPSE (CYPSE (Flatsedge) [5]; 0.2500 kg/ha): 0.0
Herbicidal rating CYPSE (CYPSE (Flatsedge) [5]; 0.5000 kg/ha): 0.0
ECHCG preemergence herbicidal rating (ECHCG (Barnyardgrass); rate 0.0313 kg/ha): 0.0
ECHCG preemergence herbicidal rating (ECHCG (Barnyardgrass); rate 0.0625 kg/ha): 0.0
ECHCG preemergence herbicidal rating (ECHCG (Barnyardgrass); rate 0.1250 kg/ha): 4.0
ECHCG preemergence herbicidal rating (ECHCG (Barnyardgrass); rate 0.2500 kg/ha): 0.0
ECHCG preemergence herbicidal rating (ECHCG (Barnyardgrass); rate 0.5000 kg/ha): 8.0
ZEAMX herbicidal rating (ZEAMX (Corn, Field) [6]; rate 0.0157 kg/ha): 3.0
ZEAMX herbicidal rating (ZEAMX (Corn, Field) [6]; rate 0.0313 kg/ha): 3.0
ZEAMX herbicidal rating (ZEAMX (Corn, Field) [6]; rate 0.0625 kg/ha): 3.0
ZEAMX herbicidal rating (ZEAMX (Corn, Field) [6]; rate 0.1250 kg/ha): 3.5
ZEAMX herbicidal rating (ZEAMX (Corn, Field) [6]; rate 0.2500 kg/ha): 3.5
ZEAMX herbicidal rating (ZEAMX (Corn, Field) [6]; rate 0.5000 kg/ha): 4.0
Herbicidal rating SAGPY ([7]; rate 0.0313 kg/ha): 0.0
Herbicidal rating SAGPY ([7]; rate 0.0625 kg/ha): 0.0
Herbicidal rating SAGPY ([7]; rate 0.1250 kg/ha): 0.0
Herbicidal rating SAGPY ([7]; rate 0.2500 kg/ha): 0.0
Herbicidal rating SAGPY ([7]; rate 0.5000 kg/ha): 1.0
SETVI preemergence herbicidal rating (SETVI (Foxtail, Green) [8]; rate 0.0313 kg/ha): 0.0
SETVI preemergence herbicidal rating (SETVI (Foxtail, Green) [8]; rate 0.0625 kg/ha): 0.0
SETVI preemergence herbicidal rating (SETVI (Foxtail, Green) [8]; rate 0.1250 kg/ha): 6.0
SETVI preemergence herbicidal rating (SETVI (Foxtail, Green) [8]; rate 0.2500 kg/ha): 6.0
SETVI preemergence herbicidal rating (SETVI (Foxtail, Green) [8]; rate 0.5000 kg/ha): 9.0
Herbicidal rating ECHORC ([9]; rate 0.0313 kg/ha): 1.0
Herbicidal rating ECHORC ([9]; rate 0.0625 kg/ha): 1.0
Herbicidal rating ECHORC ([9]; rate 0.1250 kg/ha): 3.5
Herbicidal rating ECHORC ([9]; rate 0.2500 kg/ha): 4.0
Herbicidal rating ECHORC ([9]; rate 0.5000 kg/ha): 4.5
SETVI herbicidal rating (SETVI (Foxtail, Green) [10]; rate 0.0157 kg/ha): 0.0
SETVI herbicidal rating (SETVI (Foxtail, Green) [10]; rate 0.0313 kg/ha): 0.0
SETVI herbicidal rating (SETVI (Foxtail, Green) [10]; rate 0.1250 kg/ha): 0.0
SETVI herbicidal rating (SETVI (Foxtail, Green) [10]; rate 0.2500 kg/ha): 0.0
SETVI herbicidal rating (SETVI (Foxtail, Green) [10]; rate 0.5000 kg/ha): 0.0
Herbicidal rating CYPSE (CYPSE (Flatsedge) [11]; rate 0.0313 kg/ha): 0.0
Herbicidal rating CYPSE (CYPSE (Flatsedge) [11]; rate 0.0625 kg/ha): 0.0
Herbicidal rating CYPSE (CYPSE (Flatsedge) [11]; rate 0.1250 kg/ha): 0.0
Herbicidal rating CYPSE (CYPSE (Flatsedge) [11]; rate 0.2500 kg/ha): 0.0
Herbicidal rating CYPSE (CYPSE (Flatsedge) [11]; rate 0.5000 kg/ha): 0.0
Herbicidal rating CYPIR (CYPIR (Rice Flatsedge) [12]; 0.0313 kg/ha): 0.0
Herbicidal rating CYPIR (CYPIR (Rice Flatsedge) [12]; 0.0625 kg/ha): 0.0
Herbicidal rating CYPIR (CYPIR (Rice Flatsedge) [12]; 0.1250 kg/ha): 0.0
Herbicidal rating CYPIR (CYPIR (Rice Flatsedge) [12]; 0.2500 kg/ha): 0.0
Herbicidal rating CYPIR (CYPIR (Rice Flatsedge) [12]; 0.5000 kg/ha): 1.0
